{
  "source": "patent EP0247971A2",
  "about": "“Novel pharmaceutical compositions comprising and use of cis-6-(4-acetanilido)-8,9-dimethoxy-2-methyl-1,2,3,4,4a,10b-hexahydrobenzo[c][1,6]naphthyridin” (SANDOZ AG, priority 1986, dated 1987)",
  "key": {"[1]": {"tested_on": "guinea-pig tracheal ring preparations", "experiment": "Bronchospasmolytic activity in vitro, isolated guinea-pig trachea", "format": "cell-based", "conditions": "for pIC50: guinea-pig tracheal rings, one series of tests", "procedure": "The trachea is excised from freshly sacrificed guinea-pigs and transected in the transverse plane to give rings of tissue of ca. 2 mm. Individual rings are mounted vertically on stainless steel supports, one of which is fixed at the base of an organ bath, the other being attached to a tension transducer. The rings are bathed in modified Tyrode solution at 37°C and gassed with O2/CO2 (95:5, v/v). Rings prepared in this manner, preloaded with 1 g, generate spontaneous tone and, after a period of equilibration, relax on addition of spasmolytic drugs. Tension can be enhanced by addition of carbachol (10-^6M) or histamine (10-^4M). To ascertain spasmolytic activity, test substances are dissolved in physiological saline and added in increasing quantities to the organ bath at 5 min. intervals to provide a cumulative concentration-effect curve."}, "Guinea pigs [2]": {"tested_on": "Guinea pigs", "experiment": "Inhibition of bronchospasm in vivo (Konzett-Rossler preparation)", "conditions": "dosages of the order of 1 mg/kg via jugular vein immediately before PAF, acetylcholine, histamine, serotonin, substance P or leukotriene C4", "procedure": "(§1) Guinea pigs are anaesthetised with pentobarbital (30 mg/kg i.p.) and phenobarbital (100 mg/kg i.p.) and ventilated via a tracheal cannula (10 ml/kg, lHz). Ventilation is monitored either by a pressure transducer measuring air-flow (Konzett-Rossler method), or by a Fleisch flow transducer in line with the inspiratory circuit. When making measurements of flow, coincident pressure changes in the thorax are monitored directly via an intrathoracic trochar, permitting display of differential pressure relative to the trachea. From this information resistance and compliance are calculated at each inspiration. Test substance is, administered via an indwelling cannula within a jugular vein. Blood pressure is monitored at the carotid artery. Test substance is administered immediately before injection of a bronchoconstrictor agent - PAF (56 ng/kg), acetylcholine (32 µg/kg), histamine(10 µg/kg), serotonin (10 µg/kg), substance P ([…]) or leukotriene C4 (5 µg/kg)."}, "Guinea-pigs [3]": {"tested_on": "Guinea-pigs", "experiment": "Reversal of bombesin-induced bronchospasm in vivo", "conditions": "i.v. at the height of bronchospasm induced by bombesin (ca. 500 ng/kg); one series of tests; of the order of", "procedure": "as §1\nGuinea-pigs are prepared for measurement of resistance and compliance as under lb^l above. Intravenous injection of bombes in (ca. 500 ng/kg) as a bolus, induces increased airways resistance which is sustained over a period of several minutes. Capacity of test-substance to reverse response when administered i.v. at the height of bombesin-induced bronchospasm serves as a measure of efficacy in reversing established bronchospasm."}, "Conscious guinea-pigs": {"tested_on": "Conscious guinea-pigs", "experiment": "Inhibition of acetylcholine-mist bronchoconstriction following pulmonary administration", "format": "in vivo", "conditions": "inhalation of mist 10 mins. prior to 0.3% mist of acetylcholine", "procedure": "Conscious guinea-pigs are subjected to inhalation of COMPOUND or placebo (vehicle) 10 mins. prior to explosure to a 0.3% mist of acetylcholine. COMPOUND is administered as a mist generated from COMPOUND in aqueous solution at concentrations of from 1 mg/ml to 0.001 mg/ml, using a jet nebuliser. Prolongation of time prior to collapse in treated groups as compared with placebo groups is taken as a measure of bronchodilator efficacy."}, "Guinea pigs [4]": {"tested_on": "Guinea pigs", "experiment": "Suppression of airways hyperreactivity, sensitised animals (immune complexes)", "format": "in vivo", "description": "Guinea pigs are anaesthetised and airways resistance and compliance recorded as described under example lb^l above. […] Platelets are isolated and labelled with ^lllindium prior to intravenous infusion. Platelet accumulation is monitored by external crystal detectors [c.f. Morley et al. […] Allergic reaction is initiated by i.v. injection of preformed immune complexes (bovine y-globulin/ anti-bovine y-globulin), using a dose that is scarcely sufficient to induce bronchospasm at the first injection. By repeating the dose at regular (10 min.) intervals, bronchospasm of progressively increasing amplitude is evidenced. This effect is paralleled by an incremental retention of platelets within the airway vasculature. Following the last dose of immune complexes, the dose-effect relationship to histamine is re-defined. In animals so treated, induction of airways hyperreactivity is consistently observed."}, "Guinea-pigs [5]": {"tested_on": "Guinea-pigs", "experiment": "Suppression of airways hyperreactivity, PAF-treated animals", "format": "in vivo", "procedure": "Guinea-pigs are anaesthetised and prepared for recording of lung function as described under example lb^l above. Intravenous injection of low dose bombesin (240 ng/kg) establishes airways sensitivity to spasmogens. Following infusion of PAF over lhr. […] Induction of airways hyperreactivity by PAF is a platelet-dependent phenomenon and development of. airways hyperreactivity in this model in paralleled by observed accumulation of platelets within the thorax."}, "[6]": {"tested_on": "guinea-pig peritoneal cavity", "experiment": "Influence on eosinophil accumulation in the peritoneal cavity in vivo", "procedure": "Effect of test-substance is conveniently determined by measurement of influence on PAF-induced eosinophil accumulation in the guinea-pig peritoneal cavity in vivo. In the guinea-pig, there is a substantial (up to 40%) resident population of eosinophils in the peritoneal cavity and eosinophil accumulation in the peritoneal cavity relative to control animals ca. 24 - 48 hrs. following injection of PAF i.p. at dosages of ca. 10µg/kg.\nTo esablish eosinophil accumulation, test animals receive 10µg/kg PAF i.p., 2 days prior to sacrifice. Smears from the peritoneal cavity are prepared employing Leishman's Stain after fixation with 95% methanol. At least 500 white cells are differentiated for each estimation. Test substance is administered s.c. via a minipump for four days prior to sacrifice."}, "rats": {"tested_on": "rats", "experiment": "30-week oral administration toxicity, rats", "format": "in vivo", "procedure": "(§2) 30-week oral administration of (±)-COMPOUND to rats and dogs indicate no toxicity at dosages up to 272 mg/kg/day in rats and up to 10 mg/kg/day in dogs. (±)-COMPOUND is found to have no embryolethal or teratogenic actions in the rat at dosages up to 300 mg/kg and in the rabbit at dosages up to 30 mg/kg."}, "dogs": {"tested_on": "dogs", "experiment": "30-week oral administration toxicity, dogs", "format": "in vivo", "procedure": "as §2"}, "rat": {"tested_on": "rat", "experiment": "Embryolethal or teratogenic actions, rat", "format": "in vivo", "procedure": "as §2"}, "rabbit": {"tested_on": "rabbit", "experiment": "Embryolethal or teratogenic actions, rabbit", "format": "in vivo", "procedure": "as §2"}, "healthy trial volunteers": {"tested_on": "healthy trial volunteers", "experiment": "Tolerability and safety in healthy trial volunteers", "format": "in vivo, humans"}, "[7]": {"tested_on": "subjects exhibiting heart insufficiency", "experiment": "Tolerability and safety in subjects exhibiting heart insufficiency", "format": "in vivo, humans"}, "[8]": {"conditions": "intravenous dosages of up to 100 mg by perfusion over 10 mins."}},
  "note": "pIC50: −log10 of the molar value. Read-outs that look alike come from different tables or passages of the source.",
  "data": [
    {"smiles": "COc1cc2c(cc1OC)[C@@H]1CN(C)CC[C@@H]1N=C2c1ccc(NC(C)=O)cc1", "note": "(racemic) [(±)-COMPOUND, cis-6-(4-acetanilido)-8,9-dimethoxy-2-methyl-1,2,3,4,4a,10b-hexahydrobenzo[c][1,6]naphthyridin]", "values": [
      {"measurement": "relaxant action on tracheal rings from animals desensitised to β2-agonist therapy", "setting": "[1]; animals with prolonged exposure to high-dose isoprenaline in vivo", "result": "not influenced"},
      {"measurement": "pIC50", "setting": "[1]; carbachol (10-^6M), read-out: IC50 values for inhibition of contraction due to carbachol", "result": 5.24},
      {"measurement": "pIC50", "setting": "[1]; histamine (10-^4M), read-out: IC50 values for inhibition of contraction due to histamine", "result": 5.77},
      {"measurement": "pIC50", "setting": "[1]; spontaneous tone, read-out: IC50 values for inhibition of spontaneous tone", "result": 5.49},
      {"measurement": "relaxant action in the presence of propanolol", "setting": "[1]; propanolol (1 uM)", "result": "undiminished"},
      {"measurement": "constrictor response to bronchoconstrictor agents", "setting": "Guinea pigs [2]", "result": "strongly inhibits"},
      {"measurement": "ID50 values, abrogation of bombesin-induced bronchospasm", "setting": "Guinea-pigs [3]", "result": "0.08 to 0.48", "unit": "mg/kg"},
      {"measurement": "amount introduced into the exposure chamber giving detectable protection against bronchospasm", "setting": "Conscious guinea-pigs", "result": "≥ 2", "unit": "µg"},
      {"measurement": "dosage giving suppression of induced airways resistance", "setting": "Guinea pigs [4]; advance administration i.v., ca., compared with untreated controls", "result": "≥ 1", "unit": "mg/kg"},
      {"measurement": "effective dose, inhibition of airways hyperreactivity", "setting": "Guinea pigs [4]; one test series", "result": 0.35, "unit": "mg/kg"},
      {"measurement": "thoracic platelet accumulation in response to PAF", "setting": "Guinea-pigs [5]; 1 mg/kg bolus and infusion at 1 mg/kg/hr i.v.", "result": "inhibited"},
      {"measurement": "dosage giving suppression of airways hyperreactivity induction", "setting": "Guinea-pigs [5]; advance administration i.v., ca., PAF infusion 600 ng/kg, bombesin 240 ng/kg", "result": "≥ 0.1", "unit": "mg/kg"},
      {"measurement": "ID50, suppression of airways hyperreactivity induction", "setting": "Guinea-pigs [5]; i.v., one series of tests, of the order of", "result": "~1", "unit": "mg/kg"},
      {"measurement": "PAF-induced eosinophil accumulation", "setting": "[6]; of the order of 2 mg/kg/day s.c. via minipump for four days, animals receiving 10µg/kg PAF i.p.", "result": "inhibition of eosinophil accumulation"},
      {"measurement": "resident eosinophil population", "setting": "[6]; of the order of 10 mg/kg/day s.c. via minipump for four days, non-PAF-treated animals, vs untreated controls", "result": "decrease"},
      {"measurement": "dosages with no toxicity", "setting": "rats", "result": "up to 272 mg/kg/day"},
      {"measurement": "dosages with no toxicity", "setting": "dogs", "result": "up to 10 mg/kg/day"},
      {"measurement": "dosages with no embryolethal or teratogenic actions", "setting": "rat", "result": "up to 300 mg/kg"},
      {"measurement": "dosages with no embryolethal or teratogenic actions", "setting": "rabbit", "result": "up to 30 mg/kg"},
      {"measurement": "tolerability", "setting": "healthy trial volunteers; 600 mg once daily for 3 days (6 subjects)", "result": "well tolerated"},
      {"measurement": "single oral dosages with no occurrence of side effects or relevant changes in laboratory parameters", "setting": "healthy trial volunteers; healthy trial volunteers (27 subjects)", "result": "up to 800 mg"},
      {"measurement": "arterial pressure", "setting": "[7]; [8]", "result": "light fall"},
      {"measurement": "heart frequency", "setting": "[7]; [8]", "result": "increase"},
      {"measurement": "intravenous dosages well tolerated", "setting": "[7]; perfusion over 10 mins., subjects exhibiting heart insufficiency", "result": "up to 100 mg"},
      {"measurement": "systolic blood-pressure", "setting": "[7]; placebo controlled trials, after 60 mins.", "result": "light increase"},
      {"measurement": "heart frequency", "setting": "[7]; placebo controlled trials, oral", "result": "no relevant change"},
      {"measurement": "oral dosages with no significant side effects, well tolerated", "setting": "[7]; subjects exhibiting heart insufficiency, oral", "result": "up to 600 mg"}
    ]}
  ]
}
